Measured values from PMC11808583 (Current Neuropharmacology, 2024).

Experiments:
BChE = BChE (Equus caballus, UniProt P81908); experiment: Ellman's assay, BChE inhibition; type: biochemical
AChE = AChE (Electrophorus electricus, UniProt O42275); experiment: Ellman's assay, AChE (type VI-S) inhibition; type: biochemical
AChE, sequence (O42275 24-633): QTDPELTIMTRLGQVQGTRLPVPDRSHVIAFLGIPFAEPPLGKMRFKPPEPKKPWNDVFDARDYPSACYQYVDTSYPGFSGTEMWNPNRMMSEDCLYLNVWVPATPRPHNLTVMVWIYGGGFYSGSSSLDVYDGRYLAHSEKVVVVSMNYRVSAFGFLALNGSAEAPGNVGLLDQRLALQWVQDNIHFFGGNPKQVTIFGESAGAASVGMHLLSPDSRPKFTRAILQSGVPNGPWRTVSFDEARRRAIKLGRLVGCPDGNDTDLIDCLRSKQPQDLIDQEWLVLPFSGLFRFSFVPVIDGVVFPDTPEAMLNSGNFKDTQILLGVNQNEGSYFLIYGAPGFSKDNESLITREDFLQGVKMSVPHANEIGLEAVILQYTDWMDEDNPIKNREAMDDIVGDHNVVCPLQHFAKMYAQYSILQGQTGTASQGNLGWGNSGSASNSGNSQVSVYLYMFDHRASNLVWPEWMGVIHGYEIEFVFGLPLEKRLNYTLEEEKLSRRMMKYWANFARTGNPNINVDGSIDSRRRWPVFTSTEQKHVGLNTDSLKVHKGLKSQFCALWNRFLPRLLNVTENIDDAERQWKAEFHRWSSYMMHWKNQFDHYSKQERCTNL

BChE, sequence (P81908 whole entry): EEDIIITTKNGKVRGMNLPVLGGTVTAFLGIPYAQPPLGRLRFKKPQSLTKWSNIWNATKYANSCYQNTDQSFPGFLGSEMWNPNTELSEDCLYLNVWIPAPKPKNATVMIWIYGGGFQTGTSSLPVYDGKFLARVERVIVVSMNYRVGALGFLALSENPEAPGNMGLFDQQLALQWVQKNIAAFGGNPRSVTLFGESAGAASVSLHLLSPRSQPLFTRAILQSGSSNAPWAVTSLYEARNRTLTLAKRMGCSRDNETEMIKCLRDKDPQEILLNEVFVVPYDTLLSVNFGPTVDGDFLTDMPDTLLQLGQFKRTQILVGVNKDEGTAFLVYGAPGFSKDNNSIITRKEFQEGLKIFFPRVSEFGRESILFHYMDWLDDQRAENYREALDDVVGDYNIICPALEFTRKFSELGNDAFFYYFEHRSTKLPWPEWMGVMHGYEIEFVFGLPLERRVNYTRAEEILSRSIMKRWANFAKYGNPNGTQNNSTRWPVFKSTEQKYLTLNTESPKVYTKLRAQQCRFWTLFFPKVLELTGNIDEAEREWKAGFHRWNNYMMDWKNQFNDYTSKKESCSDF

C/C=C\c1ccc(O)c(OC)c1 [isoeugenol]
IC50 (BChE): 1690 µM | IC50 (AChE): 2620 µM
